Legend:
[1] = tested on: FKBP52-enhanced AR function; experiment: Yeast AR-mediated β-galactosidase reporter assay, tester strain (AR-P723S + FKBP52); format: cell-based; conditions: DHT-induced β-galactosidase reporter
Source text: To investigate FTA inhibitory activity, a modified yeast-based assay was created to screen an in-house compound library. The receptor-mediated β-galactosidase assays were initially based on published methods ((Riggs D L, et al., EMBO J., 22:1158-67 (2003); Cox M B, et al., Toxicol. Lett. 129:13-21 (2002) and Balsiger, H. A., and Cox, M. B., in Methods in Molecular Biology: The Nuclear Receptor Superfamily, vol. 505. Edited by I. J. McEwan. The Humana Press, Totowa, N.J. (2008)), however, the assay methods were modified substantially to allow use of a 96-well plate format. All cDNAs for the FKBP proteins were obtained from the laboratory of David Smith at the Mayo Clinic, Arizona. The AR-P723S mutant was originally described previously (Cheung-Flynn, J. et al. (2005)).
All receptors and FKBP proteins were expressed from a set of yeast expression vectors that are commercially available (Mumberg, D., et al., Gene 156: 119-122 (1995)). […]
(§1) The strains were cultivated overnight using a shaking incubator in SC-HUW medium (synthetic complete medium lacking histidine, uracil and tryptophan). […] About one hour later, the plate was read in a luminometer. The measured RLU (relative light units) was normalized to the cell density of the cultures, at the time they were added to the plates, to give a measure of RLU/OD unit. […]

wild type human AR = target: T1, wild type human AR (Homo sapiens, UniProt P10275); experiment: Yeast AR-mediated β-galactosidase reporter assay, control strain (wild type AR alone); format: cell-based; conditions: without FKBP52
T1 construct: expressed in transfected cells; host or cells: Saccharomyces cerevisiae W303 (PDR5 deleted)
T1 sequence (P10275 1-920): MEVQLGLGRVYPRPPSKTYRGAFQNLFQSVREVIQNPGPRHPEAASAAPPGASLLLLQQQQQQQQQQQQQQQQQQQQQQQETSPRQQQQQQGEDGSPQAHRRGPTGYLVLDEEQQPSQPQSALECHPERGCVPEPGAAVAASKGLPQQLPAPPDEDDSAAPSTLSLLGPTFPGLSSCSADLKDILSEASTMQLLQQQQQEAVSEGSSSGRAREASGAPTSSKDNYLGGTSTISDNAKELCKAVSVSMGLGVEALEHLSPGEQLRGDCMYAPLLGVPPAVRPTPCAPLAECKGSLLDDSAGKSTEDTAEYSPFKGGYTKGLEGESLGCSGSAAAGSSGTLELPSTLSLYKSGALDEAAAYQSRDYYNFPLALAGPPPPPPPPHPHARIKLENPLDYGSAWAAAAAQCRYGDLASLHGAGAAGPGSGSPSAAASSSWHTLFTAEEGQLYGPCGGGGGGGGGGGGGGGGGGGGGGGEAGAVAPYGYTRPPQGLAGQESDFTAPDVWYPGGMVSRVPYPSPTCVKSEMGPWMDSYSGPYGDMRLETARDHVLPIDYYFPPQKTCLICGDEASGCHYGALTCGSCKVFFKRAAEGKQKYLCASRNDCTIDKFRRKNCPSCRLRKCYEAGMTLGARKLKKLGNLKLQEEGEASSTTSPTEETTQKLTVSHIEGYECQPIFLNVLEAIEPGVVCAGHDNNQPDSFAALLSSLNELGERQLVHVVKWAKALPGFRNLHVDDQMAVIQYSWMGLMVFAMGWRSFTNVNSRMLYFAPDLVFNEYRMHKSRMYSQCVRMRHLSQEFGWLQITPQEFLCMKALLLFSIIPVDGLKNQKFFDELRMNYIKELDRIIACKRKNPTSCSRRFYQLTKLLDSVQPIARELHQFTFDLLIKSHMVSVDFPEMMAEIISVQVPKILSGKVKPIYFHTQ
Source text: The yeast host strain used to make these four strains, W303, has his3, trp1 and ura3 mutations, so that growth on media lacking tryptophan, histidine and uracil requires the presence of all three plasmids. The URA3-marked steroid receptor-mediated β-galactosidase reporter plasmid (pUCΔss-26X) was the gift of Dr. Brian Freeman, University of Illinois. The pleiotropic drug resistance 5 (PDR5) gene was deleted in this strain, because PDR5 is an ATP-binding cassette transporter that could potentially transport the test compounds out of the cells, thereby hindering their identification. By deleting PDR5, this potential problem is avoided. […]
as §1
The inventors began testing compounds in the assay by starting with a standard concentration of about 50 μM for all compounds tested. […] The plates are incubated for approximately another 1-3 hours, preferable about 1 hour and 30 minutes, and the light emission is measured on a microplate luminometer (Luminoskan Ascent, Thermo Labsystems). […]

Cc1ccc(NC(=O)c2ccccc2C(=O)O)cc1C [Compound 1]
inhibition of FKBP52-enhanced AR function [1]: inhibits FKBP52-enhanced AR function
effect on AR function alone (wild type human AR): does not affect AR function alone
